{"source": "paper PMC2922960", "about": "(Bioorganic & medicinal chemistry letters, 2009)", "key": {"FTase [1]": {"molecular_target": "FTase (Homo sapiens, UniProt P49354+P49356)", "experiment": "steady-state kinetic assay", "format": "biochemical, mammalian", "conditions": "saturating FPP (10 μM), 0.2-10 μM dansylated peptide, 20-100 nM FTase, 50 mM HEPPSO pH 7.8, 5 mM TCEP, 5 mM MgCl2, 25 °C; fluorescence λex 340 nm, λem 520 nm"}, "[2]": {"molecular_target": "T1, recombinant mammalian FTase (Homo sapiens, UniProt P49354+P49356)", "experiment": "HPLC analysis of farnesylated peptide product formation", "format": "biochemical", "conditions": "3 μM peptide, 9 μM FPP, 0.05 μM FTase; for HPLC: formation of farnesylated peptide product: after 60 min incubation with FTase"}, "[3]": {"molecular_target": "T1, recombinant mammalian FTase", "experiment": "continuous spectrofluorimetric assay of FTase substrate activity", "format": "biochemical", "conditions": "from fluorescence screen and HPLC confirmation"}, "FTase [4]": {"tested_on": "FTase", "conditions": "cited from earlier work"}}, "data": [{"substance": "CAIL", "values": [{"measurement": "kcat/KM", "setting": "FTase [1]", "value": "27000 ± 2000", "unit": "M⁻¹ s⁻¹"}, {"measurement": "HPLC: formation of farnesylated peptide product", "setting": "[2]", "value": "+++"}]}, {"substance": "CALL", "values": [{"measurement": "HPLC: formation of farnesylated peptide product", "setting": "[2]", "value": "+ (25% to 50% conversion to product)"}]}, {"substance": "CAYL", "values": [{"measurement": "HPLC: formation of farnesylated peptide product", "setting": "[2]", "value": "− −"}]}, {"substance": "CCLL", "values": [{"measurement": "HPLC: formation of farnesylated peptide product", "setting": "[2]", "value": "+ (25% to 50% conversion to product)"}]}, {"substance": "CCSL", "values": [{"measurement": "HPLC: formation of farnesylated peptide product", "setting": "[2]", "value": "− −"}]}, {"substance": "CCVL", "values": [{"measurement": "kcat/KM", "setting": "FTase [1]", "value": "7000 ± 1000", "unit": "M⁻¹ s⁻¹"}, {"measurement": "HPLC: formation of farnesylated peptide product", "setting": "[2]", "value": "+++"}]}, {"substance": "CEKL", "values": [{"measurement": "HPLC: formation of farnesylated peptide product", "setting": "[2]", "value": "− −"}]}, {"substance": "CGCL", "values": [{"measurement": "HPLC: formation of farnesylated peptide product", "setting": "[2]", "value": "− −"}]}, {"substance": "CGGL", "values": [{"measurement": "HPLC: formation of farnesylated peptide product", "setting": "[2]", "value": "− −"}]}, {"substance": "CGQL", "values": [{"measurement": "HPLC: formation of farnesylated peptide product", "setting": "[2]", "value": "− −"}]}, {"substance": "CHAL", "values": [{"measurement": "HPLC: formation of farnesylated peptide product", "setting": "[2]", "value": "− −"}]}, {"substance": "CHPL", "values": [{"measurement": "HPLC: formation of farnesylated peptide product", "setting": "[2]", "value": "− −"}]}, {"substance": "CIIL", "values": [{"measurement": "kcat/KM", "setting": "FTase [1]", "value": "43000 ± 8000", "unit": "M⁻¹ s⁻¹"}, {"measurement": "HPLC: formation of farnesylated peptide product", "setting": "[2]", "value": "+++"}]}, {"substance": "CILL", "values": [{"measurement": "kcat/KM", "setting": "FTase [1]", "value": "8000 ± 2000", "unit": "M⁻¹ s⁻¹"}, {"measurement": "HPLC: formation of farnesylated peptide product", "setting": "[2]", "value": "++"}]}, {"substance": "CKVL", "values": [{"measurement": "HPLC: formation of farnesylated peptide product", "setting": "[2]", "value": "+ (25% to 50% conversion to product)"}, {"measurement": "FTase substrate ability (category in words)", "setting": "[3]", "value": "relatively modest FTase substrates"}]}, {"substance": "CLGL", "values": [{"measurement": "HPLC: formation of farnesylated peptide product", "setting": "[2]", "value": "− −"}]}, {"substance": "CLIL", "values": [{"measurement": "HPLC: formation of farnesylated peptide product", "setting": "[2]", "value": "++"}, {"measurement": "FTase substrate ability (category in words)", "setting": "[3]", "value": "confirmed substrates"}]}, {"substance": "CLLL", "values": [{"measurement": "HPLC: formation of farnesylated peptide product", "setting": "[2]", "value": "+ (25% to 50% conversion to product)"}, {"measurement": "FTase substrate ability (category in words)", "setting": "[3]", "value": "poor FTase substrate"}]}, {"substance": "CLQL", "values": [{"measurement": "HPLC: formation of farnesylated peptide product", "setting": "[2]", "value": "− (less than 25% conversion)"}]}, {"substance": "CLVL", "values": [{"measurement": "HPLC: formation of farnesylated peptide product", "setting": "[2]", "value": "+ (25% to 50% conversion to product)"}]}, {"substance": "CMEL", "values": [{"measurement": "HPLC: formation of farnesylated peptide product", "setting": "[2]", "value": "− −"}]}, {"substance": "CNIL", "values": [{"measurement": "kcat/KM", "setting": "FTase [1]", "value": "12000 ± 900", "unit": "M⁻¹ s⁻¹"}, {"measurement": "HPLC: formation of farnesylated peptide product", "setting": "[2]", "value": "++"}]}, {"substance": "CNPL", "values": [{"measurement": "HPLC: formation of farnesylated peptide product", "setting": "[2]", "value": "− −"}]}, {"substance": "CPIL", "values": [{"measurement": "HPLC: formation of farnesylated peptide product", "setting": "[2]", "value": "+ (25% to 50% conversion to product)"}, {"measurement": "FTase substrate ability (category in words)", "setting": "[3]", "value": "confirmed substrates"}]}, {"substance": "CQLL", "values": [{"measurement": "HPLC: formation of farnesylated peptide product", "setting": "[2]", "value": "− (less than 25% conversion)"}]}, {"substance": "CQNL", "values": [{"measurement": "HPLC: formation of farnesylated peptide product", "setting": "[2]", "value": "− −"}]}, {"substance": "CRLL", "values": [{"measurement": "HPLC: formation of farnesylated peptide product", "setting": "[2]", "value": "+ (25% to 50% conversion to product)"}]}, {"substance": "CSFL", "values": [{"measurement": "HPLC: formation of farnesylated peptide product", "setting": "[2]", "value": "− −"}]}, {"substance": "CSIL", "values": [{"measurement": "kcat/KM", "setting": "FTase [1]", "value": "5000 ± 1000", "unit": "M⁻¹ s⁻¹"}, {"measurement": "HPLC: formation of farnesylated peptide product", "setting": "[2]", "value": "+++"}]}, {"substance": "CSLL", "values": [{"measurement": "HPLC: formation of farnesylated peptide product", "setting": "[2]", "value": "− (less than 25% conversion)"}]}, {"substance": "CSQL", "values": [{"measurement": "HPLC: formation of farnesylated peptide product", "setting": "[2]", "value": "− −"}]}, {"substance": "CSTL", "values": [{"measurement": "HPLC: formation of farnesylated peptide product", "setting": "[2]", "value": "− −"}]}, {"substance": "CSVL", "values": [{"measurement": "HPLC: formation of farnesylated peptide product", "setting": "[2]", "value": "+ (25% to 50% conversion to product)"}]}, {"substance": "CTAL", "values": [{"measurement": "HPLC: formation of farnesylated peptide product", "setting": "[2]", "value": "− −"}]}, {"substance": "CTIL", "values": [{"measurement": "kcat/KM", "setting": "FTase [1]", "value": "33000 ± 7000", "unit": "M⁻¹ s⁻¹"}, {"measurement": "HPLC: formation of farnesylated peptide product", "setting": "[2]", "value": "++"}]}, {"substance": "CTLL", "values": [{"measurement": "HPLC: formation of farnesylated peptide product", "setting": "[2]", "value": "+ (25% to 50% conversion to product)"}]}, {"substance": "CVGL", "values": [{"measurement": "HPLC: formation of farnesylated peptide product", "setting": "[2]", "value": "− −"}]}, {"substance": "CVLL", "values": [{"measurement": "HPLC: formation of farnesylated peptide product", "setting": "[2]", "value": "+ (25% to 50% conversion to product)"}, {"measurement": "FTase substrate ability (category in words)", "setting": "[3]", "value": "relatively modest FTase substrates"}]}, {"substance": "DnGCCIL", "values": [{"measurement": "kcat/KM", "setting": "FTase [1]", "value": "23000 ± 3000", "unit": "M⁻¹ s⁻¹"}, {"measurement": "HPLC: formation of farnesylated peptide product", "setting": "[2]", "value": "+++"}, {"measurement": "FTase substrate ability (category in words)", "setting": "[3]", "value": "efficient FTase substrate"}]}, {"substance": "DnGCLML", "values": [{"measurement": "kcat/KM", "setting": "FTase [1]", "value": "8100 ± 500", "unit": "M⁻¹ s⁻¹"}, {"measurement": "HPLC: formation of farnesylated peptide product", "setting": "[2]", "value": "++"}, {"measurement": "FTase substrate ability (category in words)", "setting": "[3]", "value": "good FTase substrate"}]}, {"substance": "DnGCVIL", "values": [{"measurement": "kcat/KM", "setting": "FTase [1]", "value": "47000 ± 8000", "unit": "M⁻¹ s⁻¹"}, {"measurement": "HPLC: formation of farnesylated peptide product", "setting": "[2]", "value": "+++"}]}, {"substance": "DnGCVLS [reference compound]", "values": [{"measurement": "turnover to farnesylated product", "setting": "[2]; after 15 minutes", "value": "complete turnover"}]}, {"substance": "DnTKCVIL", "values": [{"measurement": "FTase substrate activity under single turnover conditions", "setting": "FTase [4]; single turnover conditions", "value": "FTase substrate"}, {"measurement": "FTase turnover under steady-state conditions", "setting": "FTase [4]; steady-state conditions", "value": "did not exhibit efficient turnover"}]}]}
